# Key:
# [1] = Pulsating bubble surfactometer, minimum surface tension; type: physicochemical; settings: Table 8, 37° C, 20 cycles/min, 50% area compression, 2.5 mg/ml phospholipid, Means ± SEM, N = 4
# Experimental: (§1) Surface activity of synthetic peptide/lipid surfactant compositions was assessed by either or both of the following methods: (1) measurement of the adsorption of surfactant compositions to the air-water interface as a function of time, and (2) measurement of overall dynamic surface activity on a pulsating bubble surfactometer (general methodological details of these two experimental techniques are described by Notter, Lung Surfactants: Basic Science and Clinical Applications, Marcel Dekker, Inc, New York (2000), which is hereby incorporated by reference in its entirety).
# In pulsating bubble studies, surface tension at minimum bubble radius (minimum surface tension) was determined as a function of time during pulsation on a bubble surfactometer (General Transco, Largo, Fla.) (37° C., 20 cycles/min, 50% area compression). A tiny air bubble was formed and pulsated between maximum and minimum radii of 0.55 and 0.4 mm, respectively, and the pressure drop across the air-water interface of the bubble was measured with a precision transducer. Minimum surface tension was calculated from the measured pressure drop at minimum radius (0.4 mm) from the Laplace equation (Enhorning, “Pulsating Bubble Technique for Evaluation of Pulmonary Surfactant,” J Appl Physiol 43:198-203 (1977); Hall et al., “Approximations in the Measurement of Surface Tension with the Oscillating Bubble Surfactometer,” J Appl Physiol 75:468-477 (1993), each of which is hereby incorporated by reference in its entirety). Measurements of overall surface activity on this instrument reflect the combined effects of adsorption and dynamic film compression at a cycling rate (20 cycles/min), temperature (37° C.), and area compression (50% compression from maximum to minimum area) relevant for the mammalian lungs in vivo (Notter, Lung Surfactants: Basic Science and Clinical Applications, Marcel Dekker, Inc, New York (2000); Enhorning, “Pulsating Bubble Technique for Evaluation of Pulmonary Surfactant,” J Appl Physiol 43:198-203 (1977); Notter et al., “Pulmonary Surfactant: Physical Chemistry, Physiology and Replacement,” Rev Chem Eng 13:1-118 (1997), each of which is hereby incorporated by reference in its entirety).
# [2] = Adsorption of surfactant compositions to the air-water interface (surface pressure vs time, Wilhelmy method); type: physicochemical; settings: Means ± SEM
# Experimental: as §1
# In adsorption studies, a given surfactant mixture was injected at time zero beneath the surface of a stirred surfactant-free subphase, and surface pressure (defined as surface tension lowering below that of the pure subphase) was measured as a function of time from the force on a hanging platinum slide (“Wilhelmy” method). By definition, higher surface pressure corresponds to lower surface tension (Notter, Lung Surfactants: Basic Science and Clinical Applications, Marcel Dekker, Inc, New York (2000)).
# [3] = system: ventilated rabbits with ARDS induced by saline lavage; assay: Saline-lavage ventilated rabbit model of ARDS: arterial oxygenation and dynamic compliance; type: in vivo, New Zealand white rabbits; settings: intratracheal 100 mg/kg
# Experimental: Saline lavage produces surfactant deficiency, alveolar collapse and lung edema in ventilated rats and rabbits, and is a useful experimental model for human ARDS. A saline-lavage rabbit model for lung injury was thus used to compare synthetic surfactants, with lipids only as negative control. Restoration of lung function was assessed by serial monitoring of gas exchange and lung mechanics. Physiological activity results for selected synthetic SP-B peptides are shown below, and physiological activity results for selected synthetic SP-C peptides are included in following Example 8.
# Animal experiments were performed following established protocols approved by the Animal Care and Use Committee at the Los Angeles Biomedical Research Institute at Harbor-UCLA Medical Center. […] In brief, experimental animals were commercially available young adult male New Zealand white rabbits whose respiratory function was followed during mechanical ventilation by measurements of serial arterial blood gases and pulmonary compliance over the first 2 hours after a standardized saline lavage protocol. For this timeframe of study, the model reflected a relatively pure state of surfactant insufficiency in animals with mature lungs. Saline lavage administration was performed after induction of anesthesia, insertion of a venous line in a marginal ear vein, endotracheal intubation and initiation of mechanical ventilation, muscle paralysis, and insertion of a carotid arterial line. Heart rate, arterial blood pressure and rectal temperature were measured continuously. After stabilization on the ventilator, saline lavage was performed with repeated intratracheal instillation and removal of 30 mL of normal saline until the PaO2 dropped below 100 mm Hg (average 3 lavages). Maintenance fluid was provided by a continuous infusion of Lactated Ringer's solution at a rate of 10 ml/kg/h. Edema fluid appearing in the trachea was removed by suctioning. When the PaO2 was stable at less than 100 mm Hg in saline lavaged animals, an experimental or control surfactant mixture was instilled into the trachea at a dose of 100 mg/kg body weight and a concentration of 35 mg/mL. The rabbits were ventilated using a Harvard volume-controlled animal ventilator (tidal volume 7.5 ml/kg, a positive end-expiratory pressure [PEEP] of 3 cm H2O, an inspiratory/expiratory ratio of 1:2, 100% oxygen, and a respiratory rate to maintain a PaCO2 at ˜40 mm Hg). Airway flow and pressures and tidal volume were monitored continuously with a pneumotachograph connected to the endotracheal tube and a pneumotach system. Arterial pH and blood gases were done every 15 minutes. Dynamic lung compliance was calculated by dividing tidal volume/kg body weight by changes in airway pressure (peak inspiratory pressure minus positive end-expiratory pressure) (mL/kg/cmH2O). Animals were sacrificed 2 h after surfactant administration with an overdose of pentobarbital. End-points are pulmonary gas exchange (arterial pH, PaCO2 and PaO2) and pulmonary mechanics (dynamic compliance, postmortem pressure-volume curves). Each treatment group consisted of n=4-9 animals.
# The in vivo pulmonary activity of reduced MB DATK and SMB DATK was investigated in comparison with oxidized SMB and MB (positive controls) and lipids alone (negative control) over 120 min, following intratracheal instillation of these surfactants into ventilated rabbits with ARDS induced by saline lavage. Oxidized SMB and MB were used as positive controls, because these SP-B mimics previously indicated high in vivo surfactant activities equal to those of native, full-length porcine SP-B in ventilated rats with ARDS (Walther et al., “Critical Structural and Functional Roles for the N-terminal Insertion Sequence in Surfactant Protein B Analogs,” PLoS One 5:e8672 (2010), which is hereby incorporated by reference in its entirety). […]
# [4] = storage in organic solvent or in surfactant lipids for 4-6 weeks; Walther et al. 2007; cited from earlier work
# [5] = synthetic peptide; Walther et al. 2000; cited from earlier work
# [6] = Table 7, 0.0625 mg phospholipid/ml of subphase, normal saline pH 7.0, 37 ± 0.5° C, N = 4
# [7] = Table 9, phospholipase-resistant lipids, 0.0625 mg phospholipid/ml, n = 4
# [8] = Table 13, SP-B plus SP-C peptide (1.5%:1.5%) with resistant lipids or glycerophospholipids, 0.0625 mg phospholipid/ml, n = 4
compound,measurement,setting,value
"CCCCCCCCCCCCCCCCOCC(COP(=O)(O)CCC[N+](C)(C)C)OCCCCCCCCCCCCCCCC (racemic) [DEPN-8, [(±)-trimethyl(3-phosphonopropyl)ammonium, mono(2,3-bis(hexadecyloxy)propyl ester]]",Minimum Surface Tension at 0.25 min of bubble pulsation,[1]; 0.25 min,31.2 ± 2.0 mN/m
same,Minimum Surface Tension at 0.5 min of bubble pulsation,[1]; 0.5 min,27.1 ± 1.8 mN/m
same,Minimum Surface Tension at 1 min of bubble pulsation,[1]; 1 min,21.2 ± 1.5 mN/m
same,Minimum Surface Tension at 2 min of bubble pulsation,[1]; 2 min,14.6 ± 1.2 mN/m
same,Minimum Surface Tension at 5 min of bubble pulsation,[1]; 5 min,7.8 ± 1.7 mN/m
same,Minimum Surface Tension at 10 min of bubble pulsation,[1]; 10 min,1.5 ± 1.0 mN/m
same,Minimum Surface Tension at 15 min of bubble pulsation,[1]; 15 min,<1 mN/m
same,Adsorption Surface Pressure at time 0 min,[2]; [6],0 ± 0.0 mN/m
same,Adsorption Surface Pressure at time 1 min,[2]; [6],12.9 ± 2.9 mN/m
same,Adsorption Surface Pressure at time 2 min,[2]; [6],16.0 ± 1.6 mN/m
same,Adsorption Surface Pressure at time 5 min,[2]; [6],17.8 ± 1.7 mN/m
same,Adsorption Surface Pressure at time 10 min,[2]; [6],18.0 ± 1.7 mN/m
same,Adsorption Surface Pressure at time 15 min,[2]; [6],18.2 ± 1.7 mN/m
same,Adsorption Surface Pressure at time 0 min,[2]; [7],0.0 ± 0.0 mN/m
same,Adsorption Surface Pressure at time 1 min,[2]; [7],12.9 ± 2.9 mN/m
same,Adsorption Surface Pressure at time 2 min,[2]; [7],16.0 ± 1.6 mN/m
same,Adsorption Surface Pressure at time 5 min,[2]; [7],17.8 ± 1.7 mN/m
same,Adsorption Surface Pressure at time 10 min,[2]; [7],18.0 ± 1.7 mN/m
same,Adsorption Surface Pressure at time 15 min,[2]; [7],18.2 ± 1.7 mN/m
same,Adsorption Surface Pressure at time 0 min,[2]; [8],0.0 ± 0.0 mN/m
same,Adsorption Surface Pressure at time 1 min,[2]; [8],12.9 ± 2.9 mN/m
same,Adsorption Surface Pressure at time 2 min,[2]; [8],16.0 ± 1.6 mN/m
same,Adsorption Surface Pressure at time 5 min,[2]; [8],17.8 ± 1.7 mN/m
same,Adsorption Surface Pressure at time 10 min,[2]; [8],18.0 ± 1.7 mN/m
same,Adsorption Surface Pressure at time 15 min,[2]; [8],18.2 ± 1.7 mN/m
GIPFFPVHLKRLLIVVVVVVLIVVVIVGALLMGL [SP-Cff],Oxygenation and lung compliance after instillation (FIG. 2),"[3]; SP-C mimics 3.0% by weight in 5:3:2 (weight ratio) DPPC:POPC:POPG, PBS pH 7.4, 35 mg/mL",much less so
same,relative order of pulmonary activity in terms of oxygenation and lung compliance,[3]; SP-C mimics 3.0% by weight in 5:3:2 DPPC:POPC:POPG,SP-C33˜SP-Css ion-lock>SP-Cff>Lipids alone
same,conformational stability upon storage (FTIR),[4],self-associates to form β-sheet aggregates
same,solubility in chloroform-methanol,[5],low solubility

# Source: patent US20150125515A1, “NOVEL SP-B & SP-C PEPTIDES, SYNTHETIC LUNG SURFACTANTS, AND USE THEREOF” (UNIVERSITY OF ROCHESTER, priority 2012, published 2015)
